Data published in patent publication US9125913B2, “Bcl-2-selective apoptosis-inducing agents for the treatment of cancer and immune diseases” (AbbVie Inc., priority 2008, dated 2015).

Test system: GST-Bcl-2
Test: TR-FRET binding assay, Bcl-2
Details: TR-FRET Ki values
Method in brief: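 Compounds serially diluted in DMSO from 50 μM (2× starting concentration, 10% DMSO), mixed with GST-tagged protein, F-Bak peptide probe and Tb-labeled antibody, incubated 3 h at room temperature.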

SMILES	Binding selectivity ratio (Bcl-XL Ki/Bcl-2 Ki)
O=C(NS(=O)(=O)c1ccc(NCC2CCOCC2)c(S(=O)(=O)C(F)(F)F)c1)c1ccc(N2CCN(Cc3ccccc3-c3ccc(Cl)cc3)CC2)cc1Oc1ccc2[nH]ccc2c1 [Example 62, 4-{4-[(4′-chloro-1,1′-biphenyl-2-yl)methyl]piperazin-1-yl}-2-(1H-indol-5-yloxy)-N-({4-[(tetrahydro-2H-pyran-4-ylmethyl)amino]-3-[(trifluoromethyl)sulfonyl]phenyl}sulfonyl)benzamide]	162.4
CC1(C)CCC(CN2CCN(c3ccc(C(=O)NS(=O)(=O)c4ccc(NC5CCN(CCn6cccn6)CC5)c([N+](=O)[O-])c4)c(Oc4ccc5[nH]ccc5c4)c3)CC2)=C(c2ccc(Cl)cc2)C1 [EXAMPLE 243, 4-(4-{[2-(4-chlorophenyl)-4,4-dimethylcyclohex-1-en-1-yl]methyl}piperazin-1-yl)-2-(1H-indol-5-yloxy)-N-{[3-nitro-4-({1-[2-(1H-pyrazol-1-yl)ethyl]piperidin-4-yl}amino)phenyl]sulfonyl}benzamide]	>2357.6
CC1(C)CCC(CN2CCN(c3ccc(C(=O)NS(=O)(=O)c4ccc(NCC5(N6CCOCC6)CCCCC5)c([N+](=O)[O-])c4)c(Oc4ccc5[nH]ccc5c4)c3)CC2)=C(c2ccc(Cl)cc2)C1 [EXAMPLE 229, 4-(4-{[2-(4-chlorophenyl)-4,4-dimethylcyclohex-1-en-1-yl]methyl}piperazin-1-yl)-2-(1H-indol-5-yloxy)-N-[(4-{[(1-morpholin-4-ylcyclohexyl)methyl]amino}-3-nitrophenyl)sulfonyl]benzamide]	>13.4
COCCOCCN1CCO[C@H](CNc2ccc(S(=O)(=O)NC(=O)c3ccc(N4CCN(CC5=C(c6ccc(Cl)cc6)CC(C)(C)CC5)CC4)cc3Oc3cccc4[nH]cnc34)cc2[N+](=O)[O-])C1 [EXAMPLE 455, 2-(1H-benzimidazol-4-yloxy)-4-(4-{[2-(4-chlorophenyl)-4,4-dimethylcyclohex-1-en-1-yl]methyl}piperazin-1-yl)-N-({4-[({(2R)-4-[2-(2-methoxyethoxy)ethyl]morpholin-2-yl}methyl)amino]-3-nitrophenyl}sulfonyl)benzamide]	139.4
COCCNc1ccc(S(=O)(=O)NC(=O)c2ccc(N3CCN(CC4=C(c5ccc(Cl)cc5)CC(C)(C)CC4)CC3)cc2Oc2ccc3[nH]ccc3c2)cc1S(=O)(=O)C(F)(F)F [EXAMPLE 315, 4-(4-{[2-(4-chlorophenyl)-4,4-dimethylcyclohex-1-en-1-yl]methyl}piperazin-1-yl)-2-(1H-indol-5-yloxy)-N-({4-[(2-methoxyethyl)amino]-3-[(trifluoromethyl)sulfonyl]phenyl}sulfonyl)benzamide]	>190.7
O=C(NS(=O)(=O)c1ccc(NCCCN2CCCC2)c([N+](=O)[O-])c1)c1ccc(N2CCN(Cc3ccccc3-c3ccc(Cl)cc3)CC2)cc1Oc1ccccc1 [Example 91, 4-{4-[(4′-chloro-1,1′-biphenyl-2-yl)methyl]piperazin-1-yl}-N-({3-nitro-4-[(3-pyrrolidin-1-ylpropyl)amino]phenyl}sulfonyl)-2-phenoxybenzamide]	52.8
COCCOCCN1CC[C@@H](Nc2ccc(S(=O)(=O)NC(=O)c3ccc(N4CCN(CC5=C(c6ccc(Cl)cc6)CC(C)(C)CC5)CC4)cc3Oc3cccc4[nH]cnc34)cc2[N+](=O)[O-])C1 [EXAMPLE 429, 2-(1H-benzimidazol-4-yloxy)-4-(4-{[2-(4-chlorophenyl)-4,4-dimethylcyclohex-1-en-1-yl]methyl}piperazin-1-yl)-N-{[4-({(3R)-1-[2-(2-methoxyethoxy)ethyl]pyrrolidin-3-yl}amino)-3-nitrophenyl]sulfonyl}benzamide]	140.65
O=C(NS(=O)(=O)c1ccc(NCCCN2CCOCC2)c([N+](=O)[O-])c1)c1ccc(N2CCN(Cc3ccccc3-c3ccc(Cl)cc3)CC2)cc1Oc1ccc2[nH]ccc2c1 [Example 59, 4-{4-[(4′-chloro-1,1′-biphenyl-2-yl)methyl]piperazin-1-yl}-2-(1H-indol-5-yloxy)-N-({4-[(3-morpholin-4-ylpropyl)amino]-3-nitrophenyl}sulfonyl)benzamide]	1867.6
CC1(C)CCC(CN2CCN(c3ccc(C(=O)NS(=O)(=O)c4ccc(NCCCN5CCOCC5)c([N+](=O)[O-])c4)c(Oc4ccc5[nH]ncc5c4)c3)CC2)=C(c2ccc(Cl)cc2)C1 [Example 20, 4-(4-{[2-(4-chlorophenyl)-4,4-dimethylcyclohex-1-en-1-yl]methyl}piperazin-1-yl)-2-(1H-indazol-5-yloxy)-N-({4-[(3-morpholin-4-ylpropyl)amino]-3-nitrophenyl}sulfonyl)benzamide]	32.8
CC1(C)CCC(CN2CCN(c3ccc(C(=O)NS(=O)(=O)c4ccc(NCC5CCOCC5)c([N+](=O)[O-])c4)c(Oc4ccc5[nH]ccc5c4)c3)CC2)=C(c2ccc(Cl)cc2)C1 [Example 177, 4-(4-{[2-(4-chlorophenyl)-4,4-dimethylcyclohex-1-en-1-yl]methyl}piperazin-1-yl)-2-(1H-indol-5-yloxy)-N-({3-nitro-4-[(tetrahydro-2H-pyran-4-ylmethyl)amino]phenyl}sulfonyl)benzamide]	799.7
CN(C)CCCOc1ccc(-c2ccc(Cl)cc2)c(CN2CCN(c3ccc(C(=O)NS(=O)(=O)c4ccc(NCC5CCOCC5)c([N+](=O)[O-])c4)c(Oc4ccccc4)c3)CC2)c1 [Example 116, 4-[4-({4′-chloro-4-[3-(dimethylamino)propoxy]-1,1′-biphenyl-2-yl}methyl)piperazin-1-yl]-N-({3-nitro-4-[(tetrahydro-2H-pyran-4-ylmethyl)amino]phenyl}sulfonyl)-2-phenoxybenzamide]	230.7
CC1(C)CCC(CN2CCN(c3ccc(C(=O)NS(=O)(=O)c4cnc(OCC5(F)CCOCC5)c(C#N)c4)c(Oc4cccc5[nH]ccc45)c3)CC2)=C(c2ccc(Cl)cc2)C1 [EXAMPLE 393, 4-(4-{[2-(4-chlorophenyl)-4,4-dimethylcyclohex-1-en-1-yl]methyl}piperazin-1-yl)-N-({5-cyano-6-[(4-fluorotetrahydro-2H-pyran-4-yl)methoxy]pyridin-3-yl}sulfonyl)-2-(1H-indol-4-yloxy)benzamide]	1110
CC1(C)CCC(CN2CCN(c3ccc(C(=O)NS(=O)(=O)c4ccc(N5CCOCC5)c([N+](=O)[O-])c4)c(Oc4ccc5[nH]ccc5c4)c3)CC2)=C(c2ccc(Cl)cc2)C1 [EXAMPLE 270, 4-(4-{[2-(4-chlorophenyl)-4,4-dimethylcyclohex-1-en-1-yl]methyl}piperazin-1-yl)-2-(1H-indol-5-yloxy)-N-[(4-morpholin-4-yl-3-nitrophenyl)sulfonyl]benzamide]	>199.1
CC1(C)CCC(c2ccc(Cl)cc2)=C(CN2CCN(c3ccc(C(=O)NS(=O)(=O)c4ccc(NCCCN5CCOCC5)c([N+](=O)[O-])c4)c(Oc4ccc5[nH]ccc5c4)c3)CC2)C1 [Example 50, 4-(4-{[2-(4-chlorophenyl)-5,5-dimethylcyclohex-1-en-1-yl]methyl}piperazin-1-yl)-2-(1H-indol-5-yloxy)-N-({4-[(3-morpholin-4-ylpropyl)amino]-3-nitrophenyl}sulfonyl)benzamide]	191.2
CC1(C)CCC(CN2CCN(c3ccc(C(=O)NS(=O)(=O)c4ccc(NCC5CN(C6CC6)CCO5)c([N+](=O)[O-])c4)c(Oc4cccc5[nH]cnc45)c3)CC2)=C(c2ccc(Cl)cc2)C1 (stereo not shown) [EXAMPLE 432, 2-(1H-benzimidazol-4-yloxy)-4-(4-{[2-(4-chlorophenyl)-4,4-dimethylcyclohex-1-en-1-yl]methyl}piperazin-1-yl)-N-[(4-{[(4-cyclopropylmorpholin-2-yl)methyl]amino}-3-nitrophenyl)sulfonyl]benzamide]	408.8
CC1(C)CCC(CN2CCN(c3ccc(C(=O)NS(=O)(=O)c4ccc(N[C@@H]5CCN(CC(F)F)C5)c([N+](=O)[O-])c4)c(Oc4cccc5[nH]cnc45)c3)CC2)=C(c2ccc(Cl)cc2)C1 [EXAMPLE 407, 2-(1H-benzimidazol-4-yloxy)-4-(4-{[2-(4-chlorophenyl)-4,4-dimethylcyclohex-1-en-1-yl]methyl}piperazin-1-yl)-N-[(4-{[(3R)-1-(2,2-difluoroethyl)pyrrolidin-3-yl]amino}-3-nitrophenyl)sulfonyl]benzamide]	4931
CC1(C)CCC(CN2CCN(c3ccc(C(=O)NS(=O)(=O)c4ccc(NCC5CN(S(C)(=O)=O)CCO5)c([N+](=O)[O-])c4)c(Oc4cccc5[nH]cnc45)c3)CC2)=C(c2ccc(Cl)cc2)C1 (stereo not shown) [EXAMPLE 458, 2-(1H-benzimidazol-4-yloxy)-4-(4-{[2-(4-chlorophenyl)-4,4-dimethylcyclohex-1-en-1-yl]methyl}piperazin-1-yl)-N-{[4-({[4-(methylsulfonyl)morpholin-2-yl]methyl}amino)-3-nitrophenyl]sulfonyl}benzamide]	237.24
CC1(C)CCC(CN2CCN(c3ccc(C(=O)NS(=O)(=O)c4ccc(OCC#CCN5CCOCC5)c([N+](=O)[O-])c4)c(Oc4ccc5[nH]ccc5c4)c3)CC2)=C(c2ccc(Cl)cc2)C1 [EXAMPLE 390, 4-(4-{[2-(4-chlorophenyl)-4,4-dimethylcyclohex-1-en-1-yl]methyl}piperazin-1-yl)-2-(1H-indol-5-yloxy)-N-({4-[(4-morpholin-4-ylbut-2-ynyl)oxy]-3-nitrophenyl}sulfonyl)benzamide]	339.6
CC(c1ccccc1-c1ccc(Cl)cc1)N1CCN(c2ccc(C(=O)NS(=O)(=O)c3ccc(NCC4CCOCC4)c([N+](=O)[O-])c3)c(Oc3cccc4[nH]ccc34)c2)CC1 (stereo not shown) [Example 175, 4-{4-[1-(4′-chloro-1,1′-biphenyl-2-yl)ethyl]piperazin-1-yl}-2-(1H-indol-4-yloxy)-N-({3-nitro-4-[(tetrahydro-2H-pyran-4-ylmethyl)amino]phenyl}sulfonyl)benzamide]	>6600
